Reference: paper PMC9000871, “Rhodamine 101 Conjugates of Triterpenoic Amides Are of Comparable Cytotoxicity as Their Rhodamine B Analogs” (Molecules, 2022)
Counter-ions that a name gives are not always drawn.

Key:
[1] = test system: MCF-7 (breast adenocarcinoma); assay: SRB cytotoxicity assay, MCF-7; format: cell-based; conditions: Homo sapiens, MCF7, 72 h of treatment, mean ± standard mean error
Description: (§1) The cell lines were obtained from Department of Oncology (Martin-Luther-University Halle Wittenberg; they were bought from ATCC; A 375 (CRL-1619), HT29 (HTB-38), MCF7 (HTM-22), A2780 (HTP-77), FaDu (HTP-43), NIH 3T3 (CRL-1658), HEK-293 (CRL-1573)). Cultures were maintained as monolayers in RPMI 1640 medium with L-glutamine (Capricorn Scientific GmbH, Ebsdorfergrund, Germany) supplemented with 10% heat inactivated fetal bovine serum (Sigma-Aldrich Chemie GmbH, Steinheim, Germany) and penicillin/streptomycin (1%, Capricorn Scientific GmbH, Ebsdorfergrund, Germany) at 37 °C in a humidified atmosphere with 5% CO2. The cytotoxicity of the compounds was evaluated using the sulforhodamine-B (Kiton-Red S, ABCR) micro culture colorimetric assay using confluent cells in 96-well plates with the seeding of the cells on day 0 applying appropriate cell densities to prevent confluence of the cells during the period of the experiment. On day 1, the cells were treated with six different concentrations (1, 3, 7, 12, 20, and 30 μM); thereby, the final concentration of DMSO was always <0.5%, generally regarded as non-toxic to the cells. On day 4, the supernatant medium was discarded; the cells were fixed with 10% trichloroacetic acid. After another day at 4 °C, the cells were washed in a strip washer and dyed with the SRB solution (100 μL, 0.4% in 1% acetic acid) for about 20 min to be followed by washing of the plates (four times, 1% acetic acid) and air-drying overnight. Furthermore, tris base solution (200 μL, 10 mM) was added to each well and absorbance was measured at λ = 570 nm employing a reader (96 wells, Tecan Spectra, Crailsheim, Germany). The EC50 values were averaged from three independent experiments performed each in triplicate calculated from semi logarithmic dose response curves applying a non-linear four-parameter Hills-slope equation (GraphPad Prism5; variables top and bottom were set to 100 and 0, respectively).

[2] = test system: NIH 3T3 (fibroblasts), non-malignant; assay: SRB cytotoxicity assay, NIH 3T3; format: cell-based; conditions: Mus musculus, NIH3T3, 72 h, 72 h of treatment, mean ± standard mean error
Description: as §1

[3] = test system: A2780 (ovarian carcinoma); assay: SRB cytotoxicity assay, A2780; format: cell-based; conditions: Homo sapiens, 72 h of treatment, mean ± standard mean error
Description: as §1

[4] = test system: A375 (melanoma); assay: SRB cytotoxicity assay, A375; format: cell-based, human; conditions: Homo sapiens, A-375, 72 h, 72 h of treatment, mean ± standard mean error
Description: as §1

[5] = test system: HT29 (colon adenocarcinoma); assay: SRB cytotoxicity assay, HT29; format: cell-based, human; conditions: Homo sapiens, HT-29, 72 h, 72 h of treatment, mean ± standard mean error
Description: as §1

Row | melting point [°C] | Compound | EC50 [1] [nM] | EC50 [2] [nM] | EC50 [3] [nM] | EC50 [4] [nM] | EC50 [5] [nM]
1 | 235 to 241 | CCN(CC)c1ccc2c(-c3ccccc3C(=O)N3CCCN(C(=O)[C@]45CCC(C)(C)CC4C4=CCC6[C@@]7(C)CC[C@H](OC(C)=O)C(C)(C)C7CC[C@@]6(C)[C@]4(C)CC5)CC3)c3ccc(=[N+](CC)CC)cc-3oc2c1 (stereo partly drawn) (as salt: chloride) (hydrate or solvate) [compound 18, 9-[2-[[4-(3β-Acetyloxy-28-oxo-olean-12-en-28-yl]-1-homopiperazinyl]carbonyl]phenyl]-3,6-bis(diethylamino)-xanthylium chloride] |  |  |  |  | 
2 | 238 to 246 | CCN(CC)c1ccc2c(-c3ccccc3C(=O)N3CCCN(C(=O)[C@]45CC[C@@H](C)[C@H](C)C4C4=CCC6[C@@]7(C)CC[C@H](OC(C)=O)C(C)(C)C7CC[C@@]6(C)[C@]4(C)CC5)CC3)c3ccc(=[N+](CC)CC)cc-3oc2c1 (stereo partly drawn) (as salt: chloride) (hydrate or solvate) [compound 19, 9-[2-[[4-(3β-Acetyloxy-28-oxo-urs-12-en-28-yl]-1-homopiperazinyl]carbonyl]phenyl]-3,6-bis(diethylamino)-xanthylium chloride] |  |  |  |  | 
3 | 246 to 252 | CCN(CC)c1ccc2c(-c3ccccc3C(=O)N3CCN(C(=O)[C@]45CCC(C)(C)CC4C4=CCC6[C@@]7(C)CC[C@H](OC(C)=O)C(C)(C)C7CC[C@@]6(C)[C@]4(C)CC5)CC3)c3ccc(=[N+](CC)CC)cc-3oc2c1 (stereo partly drawn) (as salt: chloride) [compound 14, 9-[2-[[4-(3β-Acetyloxy-28-oxo-olean-12-en-28-yl)-1-piperazinyl]carbonyl]phenyl]-3,6-bis(diethylamino)-xanthylium chloride] |  |  |  |  | 
4 |  | C=C(C)[C@@H]1CC[C@]2(C(=O)N3CCNCC3)CC[C@]3(C)C(CCC4[C@@]5(C)CC[C@H](OC(C)=O)C(C)(C)C5CC[C@]43C)C12 (stereo partly drawn) [compound 5, 3β-Acetyloxy-28-(1-piperazinyl)-lup-20(29)en-28-one] | 1400 ± 100 | 900 ± 100 | 1900 ± 100 | 1500 ± 300 | 1000 ± 100
5 |  | C=C(C)[C@@H]1CC[C@]2(C(=O)N3CCCNCC3)CC[C@]3(C)C(CCC4[C@@]5(C)CC[C@H](OC(C)=O)C(C)(C)C5CC[C@]43C)C12 (stereo partly drawn) [compound 9, 3β-Acetyloxy-28-(1-homopiperazinyl)-lup-20(29)en-28-one] | 10700 ± 1000 | 18700 ± 1600 | 12000 ± 600 | 18700 ± 1600 | 5100 ± 1100
6 |  | C=C(C)[C@@H]1CC[C@]2(C(=O)N3CCN(C(=O)c4ccccc4-c4c5ccc(=[N+](CC)CC)cc-5oc5cc(N(CC)CC)ccc45)CC3)CC[C@]3(C)C(CCC4[C@@]5(C)CC[C@H](OC(C)=O)C(C)(C)C5CC[C@]43C)C12 (stereo partly drawn) [compound 13, 9-[2-[[4-(3β-Acetyloxy-28-oxo-lup-20(29)en-28-yl)-1-piperazinyl]carbonyl]phenyl]-3,6-bis(diethylamino)-xanthylium chloride] | 81 ± 5 | 208 ± 34 | 50 ± 4 | 90 ± 10 | 151 ± 22
7 |  | CCN(CC)c1ccc2c(-c3ccccc3C(=O)N3CCN(C(=O)[C@]45CCC(C)(C)CC4C4=CCC6[C@@]7(C)CC[C@H](OC(C)=O)C(C)(C)C7CC[C@@]6(C)[C@]4(C)CC5)CC3)c3ccc(=[N+](CC)CC)cc-3oc2c1 (stereo partly drawn) [compound 14, 9-[2-[[4-(3β-Acetyloxy-28-oxo-olean-12-en-28-yl)-1-piperazinyl]carbonyl]phenyl]-3,6-bis(diethylamino)-xanthylium chloride] | 62 ± 4 | 137 ± 6 | 32 ± 1 | 90 ± 10 | 91 ± 10
8 |  | CCN(CC)c1ccc2c(-c3ccccc3C(=O)N3CCN(C(=O)[C@]45CC[C@@H](C)[C@H](C)C4C4=CCC6[C@@]7(C)CC[C@H](OC(C)=O)C(C)(C)C7CC[C@@]6(C)[C@]4(C)CC5)CC3)c3ccc(=[N+](CC)CC)cc-3oc2c1 (stereo partly drawn) [compound 15, 9-[2-[[4-(3β-Acetyloxy-28-oxo-ursan-12-en-28-yl)-1-piperazinyl]carbonyl]phenyl]-3,6-bis(diethylamino)-xanthylium chloride] | 75 ± 5 | 137 ± 9 | 38 ± 2 | 40 ± 20 | 83 ± 7
9 |  | CCN(CC)c1ccc2c(-c3ccccc3C(=O)N3CCN(C(=O)[C@]45CC[C@@H](C(C)=O)C4C4CCC6[C@@]7(C)CC[C@H](OC(C)=O)C(C)(C)C7CC[C@@]6(C)[C@]4(C)CC5)CC3)c3ccc(=[N+](CC)CC)cc-3oc2c1 (stereo partly drawn) [compound 16, 9-[2-[[4-(3β-Acetyloxy-20,28-dioxo-30-norlupan-28-yl)-1-piperazinyl]carbonyl]phenyl]-3,6-bis(diethylamino)-xanthylium chloride] | 70 ± 2 | 171 ± 6 | 36 ± 1 | 80 ± 30 | 99 ± 16
10 |  | C=C(C)[C@@H]1CC[C@]2(C(=O)N3CCCN(C(=O)c4ccccc4-c4c5ccc(=[N+](CC)CC)cc-5oc5cc(N(CC)CC)ccc45)CC3)CC[C@]3(C)C(CCC4[C@@]5(C)CC[C@H](OC(C)=O)C(C)(C)C5CC[C@]43C)C12 (stereo partly drawn) [compound 17, 9-[2-[[4-(3β-Acetyloxy-28-oxo-30-norlupan-28-yl)-1-homopiperazinyl]carbonyl]phenyl]-3,6-bis(diethylamino)-xanthylium chloride] | 220 ± 20 | 330 ± 70 | 220 ± 10 | 760 ± 90 | 280 ± 10
11 |  | CCN(CC)c1ccc2c(-c3ccccc3C(=O)N3CCCN(C(=O)[C@]45CCC(C)(C)CC4C4=CCC6[C@@]7(C)CC[C@H](OC(C)=O)C(C)(C)C7CC[C@@]6(C)[C@]4(C)CC5)CC3)c3ccc(=[N+](CC)CC)cc-3oc2c1 (stereo partly drawn) [compound 18, 9-[2-[[4-(3β-Acetyloxy-28-oxo-olean-12-en-28-yl]-1-homopiperazinyl]carbonyl]phenyl]-3,6-bis(diethylamino)-xanthylium chloride] | 30 ± 4 | 140 ± 20 | 20 ± 3 | 40 ± 10 | 40 ± 10
12 |  | CCN(CC)c1ccc2c(-c3ccccc3C(=O)N3CCCN(C(=O)[C@]45CC[C@@H](C)[C@H](C)C4C4=CCC6[C@@]7(C)CC[C@H](OC(C)=O)C(C)(C)C7CC[C@@]6(C)[C@]4(C)CC5)CC3)c3ccc(=[N+](CC)CC)cc-3oc2c1 (stereo partly drawn) [compound 19, 9-[2-[[4-(3β-Acetyloxy-28-oxo-urs-12-en-28-yl]-1-homopiperazinyl]carbonyl]phenyl]-3,6-bis(diethylamino)-xanthylium chloride] | 390 ± 40 | 400 ± 30 | 450 ± 30 | 510 ± 50 | 500 ± 70
13 |  | CCN(CC)c1ccc2c(-c3ccccc3C(=O)N3CCCN(C(=O)[C@]45CC[C@@H](C(C)=O)C4C4CCC6[C@@]7(C)CC[C@H](OC(C)=O)C(C)(C)C7CC[C@@]6(C)[C@]4(C)CC5)CC3)c3ccc(=[N+](CC)CC)cc-3oc2c1 (stereo partly drawn) [compound 20, 9-[2-[[4-(3β-Acetyloxy-20,28-dioxo-30-norlupan-28-yl)-1-homopiperazinyl]carbonyl]phenyl]-3,6-bis(diethylamino)-xanthylium chloride] | 150 ± 50 | 340 ± 56 | 120 ± 18 | 240 ± 17 | 300 ± 27

Row | Compound | melting point [°C] | EC50 [1] [nM] | EC50 [2] [nM] | EC50 [3] [nM] | EC50 [4] [nM] | EC50 [5] [nM]
14 | C=C(C)[C@@H]1CC[C@]2(C(=O)N3CCCN(C(=O)c4ccccc4-c4c5ccc(=[N+](CC)CC)cc-5oc5cc(N(CC)CC)ccc45)CC3)CC[C@]3(C)C(CCC4[C@@]5(C)CC[C@H](OC(C)=O)C(C)(C)C5CC[C@]43C)C12 (stereo partly drawn) (as salt: chloride) (hydrate or solvate) [compound 17, 9-[2-[[4-(3β-Acetyloxy-28-oxo-30-norlupan-28-yl)-1-homopiperazinyl]carbonyl]phenyl]-3,6-bis(diethylamino)-xanthylium chloride] | 261 to 266 |  |  |  |  | 
15 | C=C(C)[C@@H]1CC[C@]2(C(=O)N3CCN(C(=O)c4ccccc4-c4c5ccc(=[N+](CC)CC)cc-5oc5cc(N(CC)CC)ccc45)CC3)CC[C@]3(C)C(CCC4[C@@]5(C)CC[C@H](OC(C)=O)C(C)(C)C5CC[C@]43C)C12 (stereo partly drawn) (as salt: chloride) [compound 13, 9-[2-[[4-(3β-Acetyloxy-28-oxo-lup-20(29)en-28-yl)-1-piperazinyl]carbonyl]phenyl]-3,6-bis(diethylamino)-xanthylium chloride] | 247 to 252 |  |  |  |  | 
